Laboratory results taken from patent US20090181975A1, “NEBIVOLOL IN THE TREATMENT OF SEXUAL DYSFUNCTION” (FOREST LABORATORIES HOLDINGS LIMITED, priority 2008, published 2009).

Experiments:
[1] = tested on: human corpus cavernosum (HCC) strips; assay: Relaxation of human corpus cavernosum strips contracted with U46619; format: cell-based; details: metoprolol 1 μM, atenolol 1 μM, nebivolol 0.3 μM
Procedure: Specimens of human corpus cavernosum were obtained from organ donors and from impotent men at the time of penile prosthesis implantation. Tissues were placed in ice-cold M-400 solution (pH 7.4; 400 mOsm/kg, composition in w/v: 4.19% manitol, 0.2% KH2PO4, 0.97% K2HPO4.3H2O, 0.11% KCl and 0.08% NaHCO3) at the time of removal and transported to the laboratory for utilization within 16 h. Strips of human corpus cavemosum were mounted on force transducers in 8 ml organ baths (37° C.) containing physiological salt solution (PSS) continuously bubbled with 95% O2/5% CO2 mixture to maintain a pH of 7.4. Strips were contracted with the thromboxane receptor agonist U46619 (1-3 nM) and relaxation responses were evaluated by cumulative additions of compounds to the chambers.

[2] = tested on: human penile resistance arteries (HPRA); assay: Relaxation of human penile resistance arteries contracted with U46619 (myograph); format: cell-based; set-up: effect on endothelium-dependent relaxation of HPRA caused by acetylcholine / effect on sildenafil-mediated relaxation of HPRA: unit of the concentration uncertain; details: metoprolol (1 (unit uncertain)), atenolol (1 (unit uncertain)), nebivolol (0.3 (unit uncertain))
Procedure: Specimens of human corpus cavernosum were obtained from organ donors and from impotent men at the time of penile prosthesis implantation. Tissues were placed in ice-cold M-400 solution (pH 7.4; 400 mOsm/kg, composition in w/v: 4.19% manitol, 0.2% KH2PO4, 0.97% K2HPO4.3H2O, 0.11% KCl and 0.08% NaHCO3) at the time of removal and transported to the laboratory for utilization within 16 h.
To determine the resistance of penile small arteries, helicine arteries (lumen diameter 150-400 μm) which are the terminal branches of deep penile arteries, were dissected by carefully removing the adhering trabecular tissue, and arterial ring segments (2 mm long) were subsequently mounted on two 40 μm wires on microvascular double Halpern-Mulvany myographs (J.P. Trading, Aarhus, Denmark) for isometric tension recordings. The chambers were filled with PSS continuously bubbled with 95% O2/5% CO2 mixture to maintain a pH of 7.4. […]

anesthetized rats = assay: Mean arterial pressure (MAP) and heart rate (HR) in anesthetized rats; format: in vivo, rat (Sprague-Dawley); details: nebivolol 3 mg/kg i.v.; L-NAME 3 mg/kg, ODQ 1 mg/kg, propranolol 1 mg/kg, sildenafil 0.3 mg/kg i.v.
Procedure: To determine blood pressure and heart rate, Sprague-Dawley rats (250-400 g) were anesthetized with ketolar and diazepam. The right carotid artery was catheterized for constant blood pressure and heart rate measurement by means of a pressure transducer connected to a PowerLab data acquisition system (ADInstruments). The left external jugular vein was catheterized for saline or drug infusion. 3 mg/kg nebivolol (n=6) or vehicle (50% glycofurol; n=4) was administered intravenously in anesthetized rats and MAP and HR were measured. […] The effect of nebivolol in combination with the type 5 phosphodiesterase (PDE-5) inhibitor sildenafil on hypotension and heart rate was studied in rats using the methods described above.

cGMP in rat plasma = assay: Plasma cGMP content by ELISA; format: in vivo, rat (Sprague-Dawley); details: nebivolol 3 mg/kg i.v.; L-NAME 3 mg/kg, ODQ 1 mg/kg, propranolol 1 mg/kg
Procedure: To determine the plasma cGMP content, Sprague-Dawley rats were anesthetized with urethane (1.25 g/kg). The right carotid artery was catheterized for constant blood pressure and heart rate measurement by means of a pressure transducer connected to a PowerLab data acquisition system (ADInstruments). The left external jugular vein was catheterized for saline or drug infusion. After administering the respective treatments, rat plasma samples were collected, immediately frozen and stored at −80° C. until extraction for cyclic nucleotide assay. cGMP was determined by ELISA using a kit from Cayman Chemical Co. Plasmatic cGMP levels were determined 10 minutes after nebivolol administration.

[3] = tested on: nitrite plus nitrate (NOx) in rat serum; assay: Serum nitrite plus nitrate (NOx) by Griess colorimetric method; format: in vivo; details: nebivolol 3 mg/kg i.v.; L-NAME 3 mg/kg, ODQ 1 mg/kg, propranolol 1 mg/kg, sildenafil 0.3 mg/kg
Procedure: Total NO derivatives (nitrites plus nitrates) were measured in pre-filtered (10,000 MW pore size) serum samples from the studied rats by the Griess colorimetric method, using a commercial kit for nitrite and nitrate determination from Cayman Chemical Co. (Ann Arbor, Mich.). Serum concentrations of NOx were determined 10 minutes after nebivolol administration.

Row | Structure (SMILES) | effect on acetylcholine-induced endothelium-dependent relaxation of HCC strips [1] | effect on endothelium-dependent relaxation of HPRA caused by acetylcholine [2] | effect on heart rate reduction caused by nebivolol (anesthetized rats) | effect on hypotension caused by nebivolol (anesthetized rats) | effect on nebivolol-induced increase in plasma cGMP (cGMP in rat plasma) | effect on nebivolol-induced increment in serum NOx [3]
1 | COCCc1ccc(OCC(O)CNC(C)C)cc1 (stereo not shown) [metoprolol] | not significantly modified | not affected | – | – | – | –
2 | CC(C)NCC(O)COc1cccc2ccccc12 (stereo not shown) [propranolol] | – | – | significantly reduced the impact | without affecting | not influenced | –
3 | O=c1onc2cnc3ccccc3n12 [ODQ, 1-H-(1,2,4)oxadiazolo(4,3-alpha)quinoxaline-1-one] | – | – | did not significantly modify | did not significantly modify | slightly reduced | prevents this effect
4 | COC(=O)[C@@H](N)CCCNC(=N)N[N+](=O)[O-] [L-NAME, Nω-nitro-L-arginine methyl ester] | – | – | did not affect | significantly reduced | slightly reduced | prevents this effect
